The record followed here is patent US20250169495A1, “COMPOSITIONS AND METHODS FOR CONTROLLING DROSOPHILA FLIES” (Rutgers, The State University of New Jersey, priority 2023, published 2025).

Structures are written as SMILES.

For test [1], the system named is Drosophila suzukii adults. Briefly: Multiple choice bioassay #1: anthracnose-induced volatiles, gated traps with blueberries. Format: in vivo. The conditions noted are these: 50 μL neat volatile added to blueberry fruit in gated trap; 15 traps per arena; 24 h; n=4. On the procedure: These bioassays were done in arenas that consisted of a dome cage (60 cm width×60 cm length x 60 cm height; BugDorm-2120 Insect tent; shop.bugdorm.com) (FIG. 1A). Within each arena, 15 gated traps were positioned randomly in a circle (40 cm diameter) at equal distance with each trap 8.4 cm apart along the circumference (FIG. 1A). Each gated trap consisted of 50 mL polystyrene tubes (Fisher Scientific, Nazareth, PA, USA) covered with aluminum foil and sealed with Parafilm®, with a 4 mm-diameter hole in the center of the Parafilm to provide an entrance to flies. All traps had equal quantities (ca. 5 g) of store-bought organic blueberry fruit (n=5); fruit were sterilized with bleach prior to the study (10% bleach for 2 min, rinsed three times in distilled water). One of the 15 traps served as a control (with blueberry fruit only) and the remaining 14 traps had one of the anthracnose volatile compounds added to the blueberry fruit. The 14 compounds tested were: 3-hydroxy-2-butanone, styrene, (E)-2-hexen-1-ol, ethyl 3-hydroxy-3-methylbutanoate, 2-methyl-1-butanol, ethyl propanoate, 2-methyl-1-propanol, diethyl carbonate, 2-methylpropanal, 3-methyl-1-butanol, ethyl 2-methylpropanoate, ethyl butanoate, ethyl (E)-but-2-enoate, and 3-methyl-3 buten-1-ol (see Results). Each volatile (50 μL, neat) was released from a 1 mL polyethylene vial (Globe Scientific Inc., Paramus, NJ, USA) with a piece of cotton placed inside each trap (control traps had vials with cotton but without the volatile). A vial with a cotton ball soaked with deionized water was placed in the middle of the arena to provide flies with water during the experiment. Roughly 300 D. suzukii adults (1:1 male: female ratio) were released inside each arena and the number and sex of flies inside treatment and control traps was recorded after 24 h. The experiment started at 1:00 p.m., was replicated 4 times, and was done in a laboratory under 22+2° C., 55+5% RH, 16:8 (L:D) h.
Data from multiple choice assays on the percent of male and female D. suzukii adults responding to each volatile were compared using ANOVA (Minitab version 17; Minitab Inc., State College, PA, USA). The ANOVA model included treatment, sex, and their interaction as fixed factors and block (replicate) as a random factor. A multi-comparison Tukey test (Minitab) was used to determine differences among treatments. Percent data were arcsine square-root transformed prior to ANOVA. Pairwise choice assays were analyzed using G-tests with William's correction. Non-responders were excluded from the statistical analyses.

Test [2] deals with Drosophila suzukii. The test is described as follows: Field cage experiments, cultivated highbush blueberry bushes. Format: in vivo. On the procedure:
Field cage experiments were conducted from June until July using highbush blueberries (V. corymbosum var. ‘Bluecrop’). The studies were carried out in 5.5 m long×2.7 m tall cages, constructed with a PVC pipe frame covered with No-See-Um mesh (Quest Outfitters Inc., Sarasota, FL, USA) (FIG. 6C). Cages were placed in separate rows within a blueberry field, with bushes spaced approx. 0.76 m apart within the rows and 3.05 m between rows. Each row contained two cages at least 9 m in distance. To avoid interference between treatments, alternate cages were used during testing, ensuring that no adjacent cages contained sachets simultaneously. Two, 3-m rebar poles were used to reinforce the mesh on the long sides of each cage as well as 10 cm long garden staples to hold mesh flush to the ground, while the shorter ends were secured with clips to allow access to the cage. Each cage contained five blueberry bushes approx. 1.5 m in height. Sachets containing ethyl butanoate, ethyl (E)-but-2-enoate, or 2-pentylfuran were prepared as described before. To test the effects of the repellents on the treated (focal) bush and in neighboring bushes at various distances, two sachets of the same compound were hung from one of the end bushes in each cage (FIG. 6D). There were four treatments: 1) ethyl butanoate, 2) ethyl (E)-but-2-enoate, 3) 2-pentylfuran, and 4) control (no repellent). Each treatment was replicated four times, with each cage assigned to a single treatment, resulting in a total of 16 cages. Twenty-four hours after deploying the sachets, 120 flies (approximately 60 males and 60 females) were released into each cage at 18:00 hrs (N=120 flies×4 treatments×4 replicates=1,920 total flies). To ensure even distribution within the cages, 30 flies were released at four equidistant points between the bushes. A pre-sampling of the berries, conducted before the flies were released, confirmed the absence of any infestation. Berries were then collected 1-, 2-, and 3-days post-treatment. From every other bush (starting at the focal bush) in the cage, 50 berries from the top half and 50 from the bottom half were collected into two separate 236.6 mL deli containers lined with two cotton pads. From each berry sample, a random subsample of 10 berries were examined and egg counts recorded before being returned to the original container. The blueberries were incubated on a light bench in the laboratory for up to two weeks, as previously described, and adult emergence was recorded. The sachets were weighed before deployment and 3 days after deployment to measure the emission rates of each compound. Field cage data for both oviposition and adult emergence were non-normal, so non-parametric tests were applied using R statistical software. The effects of ‘Treatment’ (untreated control, ethyl butanoate, ethyl (E)-but-2-enoate, and 2-pentylfuran) across ‘Bush Position’ (focal, center, end) and ‘Day After Treatment’ (1, 2, 3 DAT) were assessed using the Kruskal-Wallis Test. When significant Treatment effects were found, post-hoc separation was performed using Dunn's Test.

As for `CCCC(=O)OCC` [ethyl butanoate], in test [1], the “number of flies captured relative to the control” value is on record as “reduced the number of flies captured relative to the control”.
Consider `C/C=C/C(=O)OCC` [ethyl (E)-but-2-enoate], for which the “number of flies captured relative to the control” value in test [1] is on record as “reduced the number of flies captured relative to the control”. The adult emergence result is “fewest adults emerge” in test [2] (1 DAT, center bush); “fewest adults emerge” in test [2] (1 DAT, end bush); “fewest adults emerge” in test [2] (2 DAT, center bush); “fewest adults emerge” in test [2] (2 DAT, end bush); “lowest adult emergence” in test [2] (3 DAT, center bush); “significantly different compared to the other repellents” in test [2] (3 DAT, end bush). For the same molecule, in test [2] (3 DAT, focal bush), the adult emergence result is on record as “lowest adult emergence”. Besides, the egg counts entry in test [2] (1 DAT, end bush) is “fewest eggs”; in test [2] (2 DAT, center bush), “lowest egg counts”; in test [2] (2 DAT, end bush) it was “lowest egg counts”; in test [2] (3 DAT, center bush), “lowest egg count”; in test [2] (3 DAT, end bush) it was “lowest egg count”; in test [2] (3 DAT, focal bush), “lowest egg count”.
For the molecule `CCCCCc1ccco1` [2-pentylfuran, reference compound], the egg counts entry is on record as “lower” in test [2] (1 DAT, central bush) and “fewest eggs” in test [2] (1 DAT, end bush). Also, the adult emergence entry is listed as “lowest adult emergence” in test [2] (3 DAT, center bush) and “lowest adult emergence” in test [2] (3 DAT, focal bush).
